Laboratory results from US20110236405A1, “COAGULATION FACTOR MODULATION FOR CONTROLLING TRANSPLANT ORGAN SIZE” (Tel HaShomer Medical Research Infrastructure and Services …, priority 2008, published 2011).
Where “and” joins values, the source holds several entries; their conditions need not be identical. Identical values can stand only once. Where no end group is shown, it is not given here. The star is where a group is joined. Palmitoyl = CCCCCCCCCCCCCCCC(=O)*

What was measured:
Assay type in all cases: in vivo, mouse
C57BL mice = test: G-CSF induced splenomegaly in C57BL and C57BL hemophilic mice; conditions: for effect on G-CSF induced splenomegaly: C57BL mice, daily treatment plus G-CSF, versus G-CSF alone; for average spleen weight: G-CSF treated
Method: 8 to 10 week old immune competent C57BL mice and C57BL hemophilic (C57BL Hem F8) mice were used for the G-CSF studies.
(§1) 8-10 weeks old NOD-SCID or Factor VIII KO SCID mice were treated by daily subcutaneous injections of recombinant human G-CSF (Neupogen, Amgen) at a dose of 250 μg per kg per day for 7 days. To determine the spleen weight, 7 days after the initiation of G-CSF treatment, mice were euthanized and spleens were harvested.
Enoxaparine (Clexane 20 mg/0.2 ml, Rhone-poulenc, France) was used at a dosage of 200 μg/mouse (dissolved in PBS) and 0.2 ml of the final solution was injected subcutaneously into each mouse once a day.
Dabigatran etexilate (Boehringer Ingelheim Pharma KG, Biberach, Germany) was administrated orally at dosage of 30 mg/kg. Final volume of 0.3 ml dissolved in DDW was administrated daily.
The palmitoylated peptides: pal-RCLSSSAVANRS (PAR1 antagonist, SEQ ID NO: 15) and pal-SGRRYGHALR (PAR4 antagonist, SEQ ID NO: 16) were prepared by solid-phase peptide synthesis using in situ neutralization/HBTU by Hadar Biotec, Israel.
The mice were treated by vehicle control, or with PAR1 antagonist or PAR4 antagonist at 0.5 mg/kg, intraperitonealy on daily basis.

[1] = tested on: E42 pig liver precursor tissue implanted in Rag-/- mice; test: Embryonic pig liver implant growth in Rag-/- mice, pig albumin serum ELISA
Method: In addition, immune deficient RAG^−/− mice or RAG^−/− FVIII KO mice were used as hosts for the transplantation studies. To obtain RAG^−/− hemophilic mice (designated RAG^−/− FVIII KO mice), FVIII mutation was introduced into RAG^−/− mice, as was previously described. All mice were kept in small cages (up to five animals per cage) and fed sterile food.
Pig embryos were obtained from the Lahav Institute of Animal Research (Kibbutz Lahav, Israel). […] Warm ischemia time was less than 10 minutes and the embryos were transferred to cold PBS. Spleen, pancreas and liver precursors for transplantation were extracted under a light microscope and were kept in sterile conditions at 4° C. in RPMI 1640 (Biological Industries, Beit HaEmek, Israel) prior to transplantation. Cold ischemia time until transplantation was less than 2 hours.
Transplantation of pig precursors was completed as previously described [Dekel, B. et al., Nat Med (2003) 9, 53-60]. Briefly, transplantation of the embryonic precursors was performed under general anesthesia (2.5% 2,2,2-Tribromoethanol, 97% in PBS, 10 ml/kg intraperitoneally). […]
Pig albumin in mouse serum was measured by a standard ELISA procedure using primary goat anti-pig albumin antibody (human, mouse, and bovine absorbed), affinity purified, and secondary pig specific horseradish-peroxidase conjugated antibody (Catalog Nos. A100-210A and A100-210P, Bethyl). […]

[2] = tested on: NOD-SCID or Factor VIII KO SCID mice; test: G-CSF induced splenomegaly in NOD-SCID and Factor VIII KO SCID mice; conditions: for average spleen weight: G-CSF 250 μg per kg per day s.c. for 7 days
Method: 8-10 week old immune deficient NOD-SCID or factor VIII KO-SCID mice (Weizmann Institute Animal Breeding Center, Rehovot, Israel) were used for G-CSF studies. To obtain immunodeficient hemophilic mice (designated factor VIII KO-SCID), FVIII-deficient mice were crossed with SCID mice, as was previously described [Aronovich, A. et al., Proc Natl Acad Sci USA (2006) 103: 19075-80].
as §1
Hu Factor VIII was infused into Factor VIII KO SCID mice by osmotic pumps (Azlet pump model 1003D, 1 μl/hr rate, 100 μl total capacity with a continuous delivery for 3 days). Thus, 60 IU Hu factor VIII was dissolved in 100 μl PBS and delivered by the 1003D pump for 3 days. The pump was administrated into the peritoneal cavity. After 3 days, a similar new pump was administrated. Initial concentration of the Hu Factor VIII was calibrated based on Hu Factor VIII half life and its clearance rate [Mordenti, J. et al., Toxicol Appl Pharmacol (1996) 136: 75-81].

In the case of “pal-SGRRYGHALR (Palmitoyl-SGRRYGHALR) [PAR4 antagonist, palmitoylated peptide, PAR4 antagonist]”, the “effect on G-CSF induced splenomegaly” value (C57BL mice) is reported as “significantly enhanced”.

For CCCCCCOC(=O)NC(=N)c1ccc(NCc2nc3cc(C(=O)N(CCC(=O)OCC)c4ccccn4)ccc3n2C)cc1 [Dabigatran, Dabigatran etexilate], the “effect on G-CSF induced splenomegaly” value (C57BL mice) was “marked enhancement” and the “embryonic pig liver growth (pig albumin serum levels)” value ([1]; Rag-/- mice, Dabigatran etexilate 30 mg/kg orally daily) was “enhancement”.

For Enoxaparine [Clexane], the “effect on G-CSF induced splenomegaly” value (C57BL mice) was “marked enhancement”, the “total average weight of the spleens” value (C57BL mice; C57BL/6 mice, following G-CSF induction, Clexane 200 μg/mouse s.c. once a day) was 266 ± 91 mg and the “pig albumin blood levels” value ([1]; non-hemophilic recipients, days 7 and 21 post transplant, versus control recipients not receiving Clexane) was “marked enhancements”.

“pal-RCLSSSAVANRS (Palmitoyl-RCLSSSAVANRS) [PAR1 antagonist, palmitoylated peptide, PAR1 antagonist]” was tested, and the “effect on G-CSF induced splenomegaly” value (C57BL mice) was “significantly enhanced”.

B1: G-CSF: recombinant human G-CSF (Neupogen, Amgen) (protein, chains of the INN, looked up)
chain: MTPLGPASSLPQSFLLKCLEQVRKIQGDGAALQEKLCATYKLCHPEELVLLGHSLGIPWAPLSSCPSQALQLAGCLSQLHSGLFLYQGLLQALEGISPELGPTLDTLQLDVADFATTIWQQMEELGMAPALQPTQGAMPAFASAFQRRAGGVLVASHLQSFLEVSYRVLRHLAQP
With B1 the average spleen weight (C57BL mice; C57BL hemophilic (Hem F8, Factor VIII KO) mice) was 256.03 ± 149.86 mg and 261 ± 154 mg, the average spleen weight (C57BL mice; non-hemophilic C57BL mice) was 181.22 ± 61.43 mg and the average spleen weight ([2]; Factor VIII KO SCID mice) was 314.89 ± 121.51 mg. The “average spleen weight, Factor VIII KO SCID versus non-hemophilic mice” value ([2]; G-CSF treated mice) was 2.6 fold and the average spleen weight ([2]; non-hemophilic NOD-SCID mice) was 118.5 ± 25.56 mg.
